From ChEMBL document CHEMBL3603785, “Discovery and Optimization of 4-(8-(3-Fluorophenyl)-1,7-naphthyridin-6-yl)transcyclohexanecarboxylic Acid, an Improved PDE4 Inhibitor for the Treatment of Chronic Obstructive Pulmonary Disease (COPD)” (J Med Chem, 2015)
In brackets after ≈: the same amount, converted by molar mass.

Key:
[1] = Thermodynamic aqueous solubility of the compound at pH 6.8; assay type: physicochemical; settings: for solubility thermodynamic: aqueous, read-out: Therm_solubility; for Therm_solubility: buffer
[2] = High throughput kinetic solubility of the compound at pH 6.8; assay type: physicochemical; settings: buffer, read-out: Kinetic_solubility
Rattus norvegicus [3] = test: AUC in rat at 4.2 uM/kg, po; assay type: ADME, organism-based; settings: in vivo
Rattus norvegicus [4] = test: AUC in rat at 2.1 uM/kg, po; assay type: ADME, organism-based; settings: in vivo
Rattus norvegicus [5] = test: Oral bioavailability in rat at 2.1 uM/kg; assay type: ADME, organism-based; settings: in vivo
[6] = target: 3',5'-cyclic-AMP phosphodiesterase 4D (Homo sapiens, UniProt Q08499); test: Inhibition of human PDE4D
Rattus norvegicus [7] = test: Volume of distribution at steady state in rat at 1.05 uM/kg, iv; assay type: ADME, organism-based; settings: in vivo
Rattus norvegicus [8] = test: Half life in rat at 1.05 uM/kg, iv; assay type: ADME, organism-based; settings: in vivo
Rattus norvegicus [9] = test: AUC in po dosed rat; assay type: ADME, organism-based; settings: in vivo
Rattus norvegicus [10] = test: Half life in po dosed rat; assay type: ADME, organism-based; settings: in vivo

Chain of 3',5'-cyclic-AMP phosphodiesterase 4D (Q08499 whole entry): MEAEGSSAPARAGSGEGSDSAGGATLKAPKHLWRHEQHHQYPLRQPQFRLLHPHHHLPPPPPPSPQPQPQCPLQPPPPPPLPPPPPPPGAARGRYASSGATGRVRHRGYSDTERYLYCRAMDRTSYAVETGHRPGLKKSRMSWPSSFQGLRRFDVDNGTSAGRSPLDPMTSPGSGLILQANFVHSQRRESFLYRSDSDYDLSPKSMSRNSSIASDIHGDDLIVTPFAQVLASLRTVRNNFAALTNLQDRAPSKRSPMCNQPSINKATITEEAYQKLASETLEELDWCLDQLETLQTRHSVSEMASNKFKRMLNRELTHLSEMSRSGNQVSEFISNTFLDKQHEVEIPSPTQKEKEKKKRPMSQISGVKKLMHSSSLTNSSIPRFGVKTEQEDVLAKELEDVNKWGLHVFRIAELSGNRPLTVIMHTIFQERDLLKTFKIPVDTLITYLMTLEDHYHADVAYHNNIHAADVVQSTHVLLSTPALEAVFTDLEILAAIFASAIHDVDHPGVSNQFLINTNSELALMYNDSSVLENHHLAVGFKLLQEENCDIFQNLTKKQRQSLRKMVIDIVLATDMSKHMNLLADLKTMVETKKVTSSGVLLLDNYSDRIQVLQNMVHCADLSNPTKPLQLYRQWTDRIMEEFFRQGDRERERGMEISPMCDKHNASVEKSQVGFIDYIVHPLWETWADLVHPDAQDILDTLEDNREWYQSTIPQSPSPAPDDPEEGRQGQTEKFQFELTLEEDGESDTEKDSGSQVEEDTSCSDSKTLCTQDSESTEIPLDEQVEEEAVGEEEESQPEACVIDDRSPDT

| Structure (SMILES) | solubility thermodynamic [1] [µg/mL] | solubility kinetic [2] [µg/mL] | IC50 [6] [nM] | further results |
| --- | --- | --- | --- | --- |
| COc1cccc(-c2nc([C@H]3CC[C@H](C(=O)O)CC3)cc3cccnc23)c1 |  | 20 (≈ 55.2 µM) |  | Therm_solubility [1]: 0.15 µg/mL |
| N#Cc1cccc(-c2nc([C@H]3CC[C@H](C(=O)O)CC3)cc3cccnc23)c1 |  | 20 (≈ 56 µM) |  | Therm_solubility [1]: 0.43 µg/mL; AUC (Rattus norvegicus [3]): 112900 µM/min |
| O=C(O)[C@H]1CC[C@H](c2cc3cccnc3c(-c3cccc(Cl)c3)n2)CC1 | 0.14 (≈ 0.382 µM) | 100 (≈ 273 µM) | 30 |  |
| N#Cc1cccc(-c2nc(N3CCOCC3)cc3cccnc23)c1 |  |  | 3 |  |
| O=C(O)c1ccc(-c2cc3cccnc3c(-c3ccc4nonc4c3)n2)cc1 | 2.3 (≈ 6.24 µM) |  |  | AUC (Rattus norvegicus [9]): 523 µM/min; t1/2 (Rattus norvegicus [10]): 12 min |

More lines, main results first:

| solubility thermodynamic [1] [µg/mL] | solubility kinetic [2] [µg/mL] | IC50 [6] [nM] | Structure (SMILES) | further results |
| --- | --- | --- | --- | --- |
| > 4 | > 70 |  | O=C(O)C1CCN(c2cc3cccnc3c(-c3cccc(F)c3)n2)CC1 | AUC (Rattus norvegicus [3]): 3919 µM/min |
| > 4 | 20 (≈ 55.8 µM) |  | N#Cc1cccc(-c2nc(N3CCC(C(=O)O)CC3)cc3cccnc23)c1 | AUC (Rattus norvegicus [4]): 2768 µM/min; F (Rattus norvegicus [5]): 157.5% |
|  | 10 (≈ 28.5 µM) |  | O=C(O)[C@H]1CC[C@H](c2cc3cccnc3c(-c3cccc(F)c3)n2)CC1 | Therm_solubility [1]: 0.92 µg/mL; AUC (Rattus norvegicus [4]): 4408 µM/min |
|  |  | 8 | N#Cc1cccc(-c2nc(N3CCC(C(N)=O)CC3)cc3cccnc23)c1 | Vdss (Rattus norvegicus [7]): 2.9 L/kg; t1/2 (Rattus norvegicus [8]): 8 min |
|  |  | 13 | N#Cc1cccc(-c2nc(N3CCC(CO)CC3)cc3cccnc23)c1 |  |
|  |  | 22 | N#Cc1cccc(-c2nc(N3CCC(O)CC3)cc3cccnc23)c1 |  |
